The values below come from publication PMC9245717, “Phylogenomic and functional characterization of an evolutionary conserved cytochrome P450-based insecticide detoxification mechanism in bees” (Proceedings of the National Academy of Sciences of the …, 2022).

Structures are written as SMILES.

In one assay the target is T1, A. mellifera CYP9Q3 (Apis mellifera, UniProt A0A7M7LMV1).
T1 construct: gene LOC408453; recombinant, baculovirus, High-5 (Trichoplusia ni) cell microsomes; coexpressed with A. mellifera CPR (XP_006569769.1)
T1 sequence (A0A7M7LMV1 1-517): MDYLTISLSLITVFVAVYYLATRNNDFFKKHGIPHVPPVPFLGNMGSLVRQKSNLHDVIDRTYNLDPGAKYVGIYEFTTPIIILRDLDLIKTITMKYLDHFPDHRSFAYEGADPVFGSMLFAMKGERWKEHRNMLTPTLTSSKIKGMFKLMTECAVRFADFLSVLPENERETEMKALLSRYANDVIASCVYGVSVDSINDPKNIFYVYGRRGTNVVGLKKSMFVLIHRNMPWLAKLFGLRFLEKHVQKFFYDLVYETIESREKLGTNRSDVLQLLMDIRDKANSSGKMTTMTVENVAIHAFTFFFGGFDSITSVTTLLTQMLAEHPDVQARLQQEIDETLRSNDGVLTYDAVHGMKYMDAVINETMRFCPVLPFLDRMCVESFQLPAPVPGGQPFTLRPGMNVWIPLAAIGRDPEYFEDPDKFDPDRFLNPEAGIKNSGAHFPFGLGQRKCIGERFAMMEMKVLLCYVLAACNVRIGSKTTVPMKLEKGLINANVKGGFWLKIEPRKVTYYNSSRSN
In words: UPLC-MS/MS depletion and metabolite formation assay. To be noted: 10 µM substrate; NADPH regeneration system; 2 h, 30 °C; recombinant microsomes. Format: biochemical.

In assay [1] the test system is T2, Xylocopa violacea CYP9Q18.
T2 construct: recombinant, baculovirus, High-5 (Trichoplusia ni) cell microsomes; coexpressed with A. mellifera CPR (XP_006569769.1)
In words: fluorescent probe saturation kinetics, Michaelis-Menten. It counts as biochemical. To be noted: NADPH; recombinant microsomes.

For assay [2], the system named is T3, Melitta hemorrhoidalis CYP9FU3.
T3 construct: recombinant, baculovirus, High-5 (Trichoplusia ni) cell microsomes; coexpressed with A. mellifera CPR (XP_006569769.1)
Described as above. The arrangement: species or system Melitta haemorrhoidalis. Conditions: NADPH; recombinant microsomes.

A further assay deals with T4, Andrena vaga CYP9FT2.
T4 construct: recombinant, baculovirus, High-5 (Trichoplusia ni) cell microsomes; coexpressed with A. mellifera CPR (XP_006569769.1)
Described as above. It counts as biochemical. Conditions: NADPH; recombinant microsomes.

For assay [3], the system named is T5, Colletes cunicularius CYP9FZ2.
T5 construct: recombinant, baculovirus, High-5 (Trichoplusia ni) cell microsomes; coexpressed with A. mellifera CPR (XP_006569769.1)
The assay is described as above. To be noted: NADPH; recombinant microsomes. It counts as biochemical.

As to `O=C1C=C(N(Cc2ccc(Cl)nc2)CC(F)F)CO1` [flupyradifurone], the “UPLC-MS/MS depletion and metabolite formation assay” value on A. mellifera CYP9Q3 was “FPF metabolite formation was remarkably uniform among all the P450s tested”.
For orientation: Km means the substrate concentration at which the rate is half of its maximum. As to `O=c1cc(C(F)(F)F)c2ccc(OCOCc3ccccc3)cc2o1` [BOMFC, 7-benzyloxymethoxy-4-trifluoromethyl coumarin], the Km in assay [1] stood at 15.2 µM; in assay [2], 8.16 µM; in the assay with Andrena vaga CYP9FT2, 7.43 µM; in assay [3], 14.7 µM.
